Assay results reported in patent US11427548B2 (Arvinas Operations, Inc., priority 2015, dated 2022).
Read-outs that look alike come from different tables or passages of the source.

Molecular target: T1, Androgen Receptor (Homo sapiens, UniProt P10275)
T1 construct: endogenous in cells; host or cells: VCaP cells
T1 sequence (P10275 1-920): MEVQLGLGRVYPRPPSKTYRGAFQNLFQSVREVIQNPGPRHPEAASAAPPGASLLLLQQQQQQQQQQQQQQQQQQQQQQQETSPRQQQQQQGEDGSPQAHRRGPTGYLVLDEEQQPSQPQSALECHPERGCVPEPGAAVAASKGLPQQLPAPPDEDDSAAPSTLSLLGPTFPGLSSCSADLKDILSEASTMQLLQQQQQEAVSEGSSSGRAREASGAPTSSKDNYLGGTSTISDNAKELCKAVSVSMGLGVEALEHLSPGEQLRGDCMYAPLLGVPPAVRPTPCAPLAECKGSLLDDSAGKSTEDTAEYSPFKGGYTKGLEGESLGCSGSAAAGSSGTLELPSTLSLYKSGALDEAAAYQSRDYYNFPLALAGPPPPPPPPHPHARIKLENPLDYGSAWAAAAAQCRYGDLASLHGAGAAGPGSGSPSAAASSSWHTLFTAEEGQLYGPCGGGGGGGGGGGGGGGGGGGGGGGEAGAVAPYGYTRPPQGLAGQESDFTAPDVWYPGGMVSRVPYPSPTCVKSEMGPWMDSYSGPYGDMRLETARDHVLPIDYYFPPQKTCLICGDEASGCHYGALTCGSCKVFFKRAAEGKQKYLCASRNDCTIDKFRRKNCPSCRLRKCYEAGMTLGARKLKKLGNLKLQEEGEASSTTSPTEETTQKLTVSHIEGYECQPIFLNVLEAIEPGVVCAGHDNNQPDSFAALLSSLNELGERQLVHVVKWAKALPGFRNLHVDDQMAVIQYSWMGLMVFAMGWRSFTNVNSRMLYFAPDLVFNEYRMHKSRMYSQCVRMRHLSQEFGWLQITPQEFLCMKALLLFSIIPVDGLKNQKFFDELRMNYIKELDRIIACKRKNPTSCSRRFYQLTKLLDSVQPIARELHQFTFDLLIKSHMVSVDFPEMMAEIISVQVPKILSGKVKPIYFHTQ
Experiment: Androgen Receptor ELISA assay (PathScan AR ELISA) in VCaP cells: AR degradation, Dmax and DC50
Type: cell-based
Conditions: for DC50: read-out: VCaP DC50; for Dmax: VCaP, read-out: VCaP Dmax (%)
Method in brief: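 VCaP cells, 30,000/well, grown ≥3 days in phenol red-free RPMI with 5% charcoal-stripped FBS; compound added in 0.1% DMSO with 0.1 nM R1881, 7 half-log doses, 24 h. Lysate AR quantified by PathScan sandwich ELISA, HRP/TMB read at 450 nm, giving DC50 and Dmax.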

DC50 (VCaP cells, Table 36) [nM]	Dmax (VCaP cells, Table 36) [%]	DC50 (VCaP cells, Table 35) [nM]	Dmax (VCaP cells, Table 35) [%]	SMILES	also measured
> 501	< 25	–	–	CC(=O)N[C@H](C(=O)N1C[C@H](O)C[C@H]1C(=O)N[C@@H](C)c1ccc(-c2scnc2C)cc1)[C@@H](C)OCCCN(C)CCc1ccc(C(=O)N[C@H]2C(C)(C)[C@H](Oc3ccc(C#N)c(Cl)c3)C2(C)C)cc1 [Example 734, (2S,4R)-1-(N-acetyl-O-(3-((4-(((1r,3r)-3-(3-chloro-4-cyanophenoxy)-2,2,4,4-tetramethylcyclobutyl)carbamoyl)phenethyl)(meth-yl)amino)propyl)-L-threonyl)-4-hydroxy-N-((S)-1-(4-(4-methylthiazol-5-yl)phenyl)ethyl)pyrrolidine-2-carboxamide]	–
< 50	> 71	–	–	Cc1ncsc1-c1ccc([C@H](C)NC(=O)[C@@H]2C[C@@H](O)CN2C(=O)[C@@H](NC(=O)COCCCCCC2(c3ccc(C(=O)N[C@H]4C(C)(C)[C@H](Oc5ccc(C#N)c(Cl)c5)C4(C)C)cc3)COC2)C(C)(C)C)cc1 [Example 685, (2S,4R)-1-((S)-2-(2-((5-(3-(4-(((1r,3r)-3-(3-chloro-4-cyanophenoxy)-2,2,4,4-tetramethylcyclobutyl)carbamoyl)phenyl)oxetan-3-yl)pentyl)oxy)acetamido)-3,3-dimethylbutanoyl)-4-hydroxy-N-((S)-1-(4-(4-methylthiazol-5-yl)phenyl)ethyl)pyrrolidine-2-carboxamide]	–
< 50	26 to 50	–	–	Cc1ncsc1-c1ccc([C@H](CO)NC(=O)[C@@H]2C[C@@H](O)CN2C(=O)[C@@H](NC(=O)CCCCN2CCN(c3ccc(C(=O)N[C@H]4C(C)(C)[C@H](Oc5ccc(C#N)c(Cl)c5)C4(C)C)cn3)CC2)C(C)(C)C)cc1 [Example 780, N-((1r,3r)-3-(3-chloro-4-cyanophenoxy)-2,2,4,4-tetramethylcyclobutyl)-6-(4-(5-(((S)-1-((2S,4R)-4-hydroxy-2-(((R)-2-hydroxy-1-(4-(4-methylthiazol-5-yl)phenyl)ethyl)carbamoyl)pyrrolidin-1-yl)-3,3-dimethyl-1-oxobutan-2-yl)amino)-5-oxopentyl)piperazin-1-yl)nicotinamide]	–
–	–	–	–	Cc1ncsc1-c1ccc(CNC(=O)[C@@H]2C[C@@H](O)CN2C(=O)[C@@H](NC(=O)COCCC2CCN(CCOc3ccc(N4C(=S)N(c5ccc(C#N)c(C(F)(F)F)c5)C(=O)C4(C)C)cc3)CC2)C(C)(C)C)cc1 [Example 318]	Dmax: 26 to 50%; DC50 (VCaP cells, Table 34): 51 to 500 nM
< 50	> 71	–	–	Cc1ncsc1-c1ccc([C@H](C)NC(=O)C2C[C@@H](O)CN2C(=O)[C@@H](NC(=O)CCCCCCc2ccc(C(=O)N[C@H]3C(C)(C)[C@H](Oc4ccc(C#N)c(Cl)c4)C3(C)C)cc2)C(C)(C)C)cc1 (stereo partly drawn) [Example 749, (2S,4R)-1-((S)-2-(7-(4-(((1r,3r)-3-(3-chloro-4-cyanophenoxy)-2,2,4,4-tetramethylcyclobutyl)carbamoyl)phenyl)heptan-amido)-3,3-dimethylbutanoyl)-4-hydroxy-N-((S)-1-(4-(4-methylthiazol-5-yl)phenyl)ethyl)pyrrolidine-2-carboxamide]	–
–	–	< 50	> 71	Cc1nccn1-c1ccc([C@H](C)NC(=O)[C@@H]2C[C@@H](O)CN2C(=O)[C@@H](NC(=O)COCCOc2ccc(-c3ccc(C(=O)N[C@H]4C(C)(C)[C@H](Oc5ccc(C#N)c(Cl)c5)C4(C)C)cc3)cc2)C(C)(C)C)cc1 [Example 449]	–
–	–	< 50	51 to 70	Cc1ncsc1-c1ccc([C@H](C)NC(=O)[C@@H]2C[C@@H](O)CN2C(=O)[C@@H](NC(=O)COCCCCCNc2ccc(C(=O)N[C@H]3C[C@H](Oc4ccc(C#N)c(Cl)c4)C3)cc2)C(C)(C)C)cc1 [Example 496]	–
> 501	< 25	–	–	Cc1ncsc1-c1ccc([C@H](C)NC(=O)C2C[C@@H](O)CN2C(=O)C(NC(=O)CCCN2CCN(c3ccc(C(=O)N[C@H]4C(C)(C)[C@H](Oc5ccc(C#N)c(Cl)c5)C4(C)C)cn3)CC2)C(C)(C)C)cc1 (stereo partly drawn) [Example 768, N-((1r,3r)-3-(3-chloro-4-cyanophenoxy)-2,2,4,4-tetramethylcyclobutyl)-6-(4-(4-(((S)-1-((2S,4R)-4-hydroxy-2-(((S)-1-(4-(4-methylthiazol-5-yl)phenyl)ethyl)carbam-oyl)pyrrolidin-1-yl)-3,3-dimethyl-1-oxobutan-2-yl)amino)-4-oxobutyl)piperazin-1-yl)nicotinamide]	–
–	–	< 50	> 71	Cc1ncsc1-c1ccc([C@H](C)NC(=O)[C@@H]2C[C@@H](O)CN2C(=O)[C@@H](NC(=O)COCC2CCN(c3ccc(C(=O)N[C@H]4C(C)(C)[C@H](Oc5ccc(C#N)c(Cl)c5)C4(C)C)cn3)CC2)C(C)(C)C)cc1 [Example 442]	–
–	–	< 50	26 to 50	Cc1ncsc1-c1ccc([C@H](C)NC(=O)[C@@H]2C[C@@H](O)CN2C(=O)[C@@H](NC(=O)COCCCCCNc2ccc(C(=O)N(C)[C@H]3C(C)(C)[C@H](Oc4ccc(C#N)c(Cl)c4)C3(C)C)cc2)C(C)(C)C)cc1 [Example 473]	–
–	–	> 501	51 to 70	Cc1ncsc1-c1ccc(CNC(=O)[C@@H]2C[C@@H](O)CN2C(=O)[C@@H](NC(=O)COCCN2CCC(c3ccc(C(=O)N[C@H]4C(C)(C)[C@H](Oc5ccc(C#N)c(Cl)c5)C4(C)C)cc3)CC2)C(C)(C)C)cc1 [Example 525]	–
–	–	< 50	> 71	C[C@H](NC(=O)[C@@H]1C[C@@H](O)CN1C(=O)[C@@H](NC(=O)COCCCCOc1ccc(C(=O)N[C@H]2C(C)(C)[C@H](Oc3ccc(C#N)c(Cl)c3)C2(C)C)cc1)C(C)(C)C)c1ccc(Cl)cc1 [Example 572]	–
> 501	< 25	–	–	CC(C)[C@H](C(=O)N1C[C@H](O)C[C@H]1C(=O)NCc1ccc(C#N)cc1)N1Cc2ccc(N3CCN(CCCc4ccc(C(=O)N[C@H]5C(C)(C)[C@H](Oc6ccc(C#N)c(C(F)(F)F)c6)C5(C)C)cc4)CC3)cc2C1=O [Example 771, (2S,4R)-1-((R)-2-(6-(4-(3-(4-(((1r,3r)-3-(4-cyano-3-(trifluoromethyl)phenoxy)-2,2,4,4-tetramethylcyclobutyl)carbamoyl)phenyl)propyl)piperazin-1-yl)-1-oxoisoindolin-2-yl)-3-methylbutanoyl)-N-(4-cyanobenzyl)-4-hydroxypyrrolidine-2-carboxamide]	–

SMILES	DC50 (VCaP cells, Table 36) [nM]	Dmax (VCaP cells, Table 36) [%]	DC50 (VCaP cells, Table 35) [nM]	Dmax (VCaP cells, Table 35) [%]	also measured
Cc1ncsc1-c1ccc([C@H](C)NC(=O)[C@@H]2C[C@@H](O)CN2C(=O)[C@@H](NC(=O)CN2C[C@H](C)N(CCCc3ccc(C(=O)N[C@H]4C(C)(C)[C@H](Oc5ccc(C#N)c(Cl)c5)C4(C)C)cc3)C[C@H]2C)C(C)(C)C)cc1 [Example 816, (2S,4R)-1-((S)-2-(2-((2R,5S)-4-(3-(4-(((1r, 3S)-3-(3-chloro-4-cyanophenoxy)-2,2,4,4-tetramethylcyclobutyl)carbamoyl)phenyl)propyl)-2,5-dimethylpiperazin-1-yl)acetamido)-3,3-dimethylbutanoyl)-4-hydroxy-N-((S)-1-(4-(4-methylthiazol-5-yl)phenyl)ethyl) pyrrolidine-2-carboxamide]	< 50	–	–	–	Dmax: > 71%
